In patent US20210338647A1, “Combination of Acetylcholinesterase Inhibitor and 5-HT4 Receptor Agonist As Neuroprotective Agent In the Treatment of Neurodegenerative Diseases” (UNIVERSITE DE CAEN NORMANDIE, priority 2018, published 2021):
Marks after values point to notes of the source that are not given here.

Columns and labels:
[1] = system: rat primary hippocampal neurons injured with Aβ 1-42; assay: Number of synapses (PSD95/SYN overlap) in primary culture of hippocampal neurons injured with Aβ 1-42; format: cell-based; details: for Synapses: Aβ1-42 20 μM/2.5 μM, percentage of control, Example 3
Protocol: (§1) Rat hippocampal neurons were cultured as described by Callizot et al. (2013) J. Neurosci. Res. 91706-716. Pregnant female rats of 17 days gestation (Rats Wistar; Janvier Labs France) were killed using a deep anesthesia with CO2 chamber followed by a cervical dislocation. Then, fetuses were removed from the uterus and immediately placed in ice-cold L15 Leibovitz medium with a 2% penicillin (10,000 U/ml) and streptomycin (10 mg/ml) solution (PS) and 1% bovine serum albumin (BSA). Hippocampal neurons were treated for 20 min at 37° C. with a trypsin-EDTA solution at a final concentration of 0.05% trypsin and 0.02% EDTA. The dissociation was stopped by adding Dulbecco's modified Eagle's medium (DMEM) with 4.5 g/l of glucose, containing DNAse I grade 11 (final concentration 0.5 mg/ml) and 10% fetal calf serum (FCS). Cells were mechanically dissociated by three forced passages through the tip of a 10-ml pipette and then centrifuged at 515×g for 10 min at 4° C. The supernatant was discarded, and the pellet was resuspended in a defined culture medium consisting of Neurobasal medium with a 2% solution of B27 supplement, 2 mmol/l of L-glutamine, 2% of PS solution, and 10 ng/ml of brain-derived neurotrophic factor (BDNF). Viable cells were counted in a Neubauer cytometer, using the trypan blue exclusion test. […] The medium was changed every 2 days.
(§2) The hippocampal neurons were exposed with Aβ solutions (see below) after 17 days of culture. The Aβ1-42 preparation was done following the procedure described by Callizot et al. (2013) J. Neurosci. Res. 91706-716. Briefly, Aβ1-42 peptide was dissolved in the defined culture medium mentioned above, at an initial concentration of 40 μM. This solution was gently agitated for 3 days at 37° C. in the dark and immediately used after being properly diluted in culture medium to the concentrations used (20 μM (plate 1) or 2.5 μM (plate 2) corresponding to 2 μM or 0.25 μM of oligomers (AβO) respectively).
(§3) Donecopride fumarate was solved in culture medium and preincubated 1 h before Aβ application. Aβ1-42 preparation was added to a final concentration of 20 or 2.5 μM (=2 μM or 0.25 μM of AβO, evaluated by automatic Western Blot) diluted in control medium in presence of Donecopride.
(§4) Donecopride fumarate (Donecopride) was tested on one culture in a 96 well plate (6 wells per conditions). The compound was preincubated one hour before […] application. The following conditions were assessed:
(§5) After permeabilization with 0.1% of saponin, cells were incubated for 2 h with:
a) mouse monoclonal antibody anti post synaptic density 95 kDa (PSD95) at a dilution of 1/100 in PBS containing 1% fetal calf serum and 0.1% of saponin.
b) Rabbit polyclonal antibody anti-synaptophysin (SYN) at the dilution of 1/100 in PBS containing 1% fetal calf serum and 0.1% of saponin.
For each condition, 40 pictures per well were taken using ImageXpress (Molecular Devices) with 40× magnification. All images were taken with the same acquisition parameters.
Synapses evaluation was performed automatically by using Custom module editor (Molecular Devices).
Total number of synapses (overlapping between PSD95/SYN).
To assess the formation of synapses, the distribution of PSD-95, a post-synaptic marker, and synaptophysin, a pre-synaptic marker, was studied. A structure positive for both PSD-95 and synaptophysin staining was considered as a synapse.
Rat hippocampal neurons were cultured as described by Callizot et al. (2013) J. Neurosci. Res. 91:706-716.

[2] = system: phospho Tau (AT100); assay: Phosphorylation of Tau (AT100) in MAP-2 neurons injured with Aβ 1-42; format: cell-based, rat; details: for AT100: Aβ1-42 20 μM/2.5 μM, percentage of control, Example 3
Protocol: as §1, §2, §3, §4, §5
b) mouse monoclonal antibody anti-phospho Tau (AT100) at dilution of 1/400 in PBS containing 1% fetal calf serum and 0.1% of saponin.
(§6) For each condition, 30 pictures (representative of the whole well area) per well were taken using ImageXpress (Molecular Devices) at 20× magnification. All images were taken with the same acquisition parameters. Analyses were performed automatically by using Custom Module Editor (Molecular Devices).
area of tau in neurons (μm^2, overlapping with MAP-2 positive neurons).
(§7) Rat hippocampal neurons were cultured as described by Callizot et al. (2013) J. Neurosci. Res. 91:706-716. Briefly, pregnant female rats of 17 days gestation (Rats Wistar; Janvier Labs France) were killed using a deep anesthesia with CO2 chamber and a cervical dislocation. Then, fetuses were removed from the uterus and immediately placed in ice-cold L15 Leibovitz medium with a 2% penicillin (10,000 U/ml) and streptomycin (10 mg/ml) solution (PS) and 1% bovine serum albumin (BSA). The hippocampi were treated for 20 min at 37° C. with a trypsin-EDTA solution at a final concentration of 0.05% trypsin and 0.02% EDTA. The dissociation was stopped by addition of Dulbecco's modified Eagle's medium (DMEM) with 4.5 g/l of glucose, containing DNAse I grade II (final concentration 0.5 mg/ml) and 10% fetal calf serum (FCS). Cells were mechanically dissociated by three forced passages through the tip of a 10-ml pipette.

[3] = system: rat primary hippocampal neurons injured with Aβ 1-42; assay: Neurite network of MAP-2 neurons in primary culture of hippocampal neurons injured with Aβ 1-42; format: cell-based; details: for Neurite network / Neurite/neuron: Aβ1-42 20 μM/2.5 μM, percentage of control, Example 3
Protocol: as §1, §2, §3, §4, §5
a) chicken polyclonal antibody anti microtubule-associated-protein 2 (MAP-2), diluted at 1/1000 in PBS containing 1% fetal calf serum and 0.1% of saponin (this antibody allows the specific staining of neuronal cell bodies and neurites; and allow the study of neuronal cell death and neurite network).
as §6
Neurite network (in μm of MAP-2 positive neurons)
The neurite network is proportional to the number of neurons in the culture. The total neurite network was normalized by the number of neurons, in order to determine the average length of neurite per neurons.
as §7, with “The dissociation was stopped by addition of Dulbecco's modified Eagle's medium (DMEM) with 4.5 g/l of glucose, containing DNAse I grade II (final concentration 0.5 mg/ml) and 10% fetal calf serum (FCS). Cells were mechanically dissociated by three forced passages through the tip of a 10-ml pipette.” left out

[4] = Aβ 1-42 injured hippocampal neurons, Example 3 step 1

SMILES: CCCCN1CCC(CCC(=O)c2cc(Cl)c(N)cc2OC)CC1 [RS67333, 1-(4-amino-5-chloro-2-methoxy-phenyl)-3-(1-butyl-4-piperidinyl)-1-propanone]
- Lowest protective active dose: synapse [1, 4]: 1 µM
- Lowest protective active dose: hyperphosphorylation of Tau [2, 4]: 1 nM
- Lowest protective active dose: neurite network [3, 4]: 10 nM
- Average length of neurites per neurons (FIG. 1C) ([3]; RS67333 alone, Aβ 1-42 injured hippocampal neurons, Example 3 step 1): protective effects

SMILES: COc1cc2c(cc1OC)C(=O)C(CC1CCN(Cc3ccccc3)CC1)C2 (centres unmarked) [Donepezil]
- Number of synapses normalized by the number of neurons (formation of new synapses) ([1]; Donepezil 1 μM, Aβ 1-42 injured hippocampal neurons, Example 1): had no effect
- Synapses ([1]; donepezil 100 pM): 68%
- Synapses ([1]; donepezil 1 nM): 72%
- Synapses ([1]; donepezil 10 nM): 81%*
- Synapses ([1]; donepezil 50 nM): 84%*
- Synapses ([1]; donepezil 100 nM): 87%*
- Synapses ([1]; donepezil 500 nM): 90%*
- Synapses ([1]; donepezil 1 μM): 91%*
- Synapses ([1]; donepezil 10 μM): 93%*
- AT100 ([2]; donepezil 100 pM): 181%
- AT100 ([2]; donepezil 1 nM): 165%*
- AT100 ([2]; donepezil 1 nM, listed as donepezil): 165%
- AT100 ([2]; donepezil 10 nM): 146%*
- AT100 ([2]; donepezil 50 nM): 139%*
- AT100 ([2]; donepezil 100 nM): 140%*
- AT100 ([2]; donepezil 500 nM): 142%*
- AT100 ([2]; donepezil 1 μM): 141%*
- AT100 ([2]; donepezil 10 μM): 143%*
- Neurite network ([3]; donepezil 100 pM): 68%
- Neurite/neuron ([3]; donepezil 100 pM): 99%
- Neurite network ([3]; donepezil 1 nM): 75%*
- Neurite/neuron ([3]; donepezil 1 nM): 99%
- Neurite network ([3]; donepezil 10 nM): 79%*
- Neurite/neuron ([3]; donepezil 10 nM): 91%
- Neurite network ([3]; donepezil 50 nM): 85%*
- Neurite/neuron ([3]; donepezil 50 nM): 94%
- Neurite network ([3]; donepezil 100 nM): 85%*
- Neurite/neuron ([3]; donepezil 100 nM): 94%
- Neurite network ([3]; donepezil 500 nM): 87%*
- Neurite/neuron ([3]; donepezil 500 nM): 101%
- Neurite network ([3]; donepezil 1 μM): 90%*
- Neurite/neuron ([3]; donepezil 1 μM): 105%*
- Neurite network ([3]; donepezil 10 μM): 88%*
- Neurite/neuron ([3]; donepezil 10 μM): 103%*
